Reference: patent publication US10898469B2, “Imidazolylamide derivative” (Sumitomo Dainippon Pharma Co., Ltd., priority 2016, dated 2021)
Read-outs that look alike come from different tables or passages of the source.

Assays:
Assay type in all cases: cell-based, human
HCT-116 cells [1] = assay: Inhibition test for sphere-forming ability of cancer cells (Test Example 1), HCT-116; conditions: for IC50: concentration for 50% inhibition of cell proliferation, read-out: IC50 (μmol/L) HCT-116 (Sphere IC50 value); for inhibitory effect on the sphere-forming ability of cancer cells: Test Example 1, summary in words, cell line not given (HCT-116, HT-29, FaDu tested)
Method in brief: (§1)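 Sphere IC50 (μmol/L) derived from CellTiter-Glo luminescence after 4 days of compound treatment (final DMSO 0.1%). Non-adherent, serum-free culture of 350-800 cells/well in DMEM/F12 supplemented with 2% B27, EGF, bFGF and insulin assessed self-renewal.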

HT-29 cells = assay: Inhibition test for sphere-forming ability of cancer cells (Test Example 1), HT-29; conditions: for IC50: concentration for 50% inhibition of cell proliferation, read-out: IC50 (μmol/L) HT-29 (Sphere IC50 value)
Method in brief: as §1

FaDu cells = assay: Inhibition test for sphere-forming ability of cancer cells (Test Example 1), FaDu; conditions: for IC50: concentration for 50% inhibition of cell proliferation, read-out: IC50 (μmol/L) FaDu (Sphere IC50 value)
Method in brief: as §1

HCT-116 cells [2] = assay: Inhibition test for sphere-forming ability of cancer cells in the presence of BSA (Test Example 2), HCT-116; conditions: for IC50: HCT-116 cells, in the presence of 5% BSA, cultured 4 days; for inhibitory effect on the sphere-forming ability of cancer cells: Test Example 2, in the presence of 5% BSA, summary in words, cell line not given (HCT-116, HT-29, FaDu tested)
Procedure: Human colorectal cancer-derived HCT-116 cells, human colon-adenocarcinoma-derived HT-29 cells, and human pharyngeal cancer-derived FaDu cells were available from American Type Culture Collection (ATCC). HCT-116 cells and HT-29 cells were cultured at 37° C. under 5% CO2 using the McCoy's 5a medium containing 10% fetal bovine serum (FBS) and 1% penicillin/streptomycin, and FaDu cells were cultured at 37° C. under 5% CO2 using the MEM medium containing 10% FBS, 1% non-essential amino acid, 1% sodium pyruvate, 5% bovine serum albumin (BSA), and 1% penicillin/streptomycin. HCT-116 cells, HT-29 cells, and FaDu cells were seeded in a 384 Well Black Clear Bottom Ultra-Low Attachment Microplate (Corning Cat. No. 3827) in an amount of 350-800 cells/well using the DMEM/F12 medium containing 2% B27 supplement (GIBCO), 20 ng/mL epidermal growth factor (EGF) (peprotech), 10 ng/mL basic fibroblast growth factor (bFGF) (peprotech), 5 μg/mL insulin (Sigma), 5% bovine serum albumin (BSA), and 1% penicillin/streptomycin. Each test compound was added into each well to adjust the final concentration of DMSO to 0.1%, and the cells were cultured for 4 days. The number of viable cells in each well was then measured with CellTiter-Glo® Luminescent Cell Viability Assay (Promega) to calculate the concentration of each test compound for 50% inhibition of cell proliferation (Sphere IC50 value; μmol/L).
The experiment of Test Example 2 was performed for each compound of each Example.
The concentration of each test compound for 50% inhibition of cell proliferation (Sphere IC50 value; μmol/L) is shown in the following Table.

[3] = Homo sapiens, read-out: (100%-inhibition rate of cell proliferation) at 1 μmol/L, 1 μmol/L, value with %

SMILES | IC50 (HCT-116 cells [1]; Homo sapiens, HCT-116 cells) | IC50 (HT-29 cells; Homo sapiens) | IC50 (FaDu cells; Homo sapiens) | IC50 (HCT-116 cells [1]; HCT-116 cells) | IC50 (FaDu cells) | inhibitory effect on the sphere-forming ability of cancer cells (HCT-116 cells [1]) | further results
COc1ccc(/C=C/C(=O)Nc2cn(Cc3cccc(Cl)c3)cn2)cc1O [Example 23, (E)-N-(1-(3-Chlorobenzyl)-1H-imidazol-4-yl)-3-(3-hydroxy-4-methoxyphenyl)acrylamide] | 0.61 µmol/L | 0.47 µmol/L | < 0.01 µmol/L | – | – | – | IC50 (HCT-116 cells [2]; Homo sapiens, HCT-116, 96 h): 370 nM; inhibitory effect on the sphere-forming ability of cancer cells (HCT-116 cells [2]): particularly potent inhibitory effect
N#Cc1ccc(/C=C/C(=O)Nc2cn(Cc3cccc(Cl)c3)cn2)cc1 [Example 22] | 0.08 µmol/L | < 0.01 µmol/L | 0.06 µmol/L | – | – | particularly potent inhibitory effect | IC50 (HCT-116 cells [2]; Homo sapiens, HCT-116, 96 h): 640 nM; inhibitory effect on the sphere-forming ability of cancer cells (HCT-116 cells [2]): particularly potent inhibitory effect
CS(=O)(=O)Nc1ccc(/C=C/C(=O)Nc2cn(Cc3cccc(Cl)c3)cn2)cc1 [Example 4, (E)-N-(1-(3-Chlorobenzyl)-1H-imidazol-4-yl)-3-(4-(methylsulfonamide)phenyl)acrylamide] | 5.79 µmol/L | 0.69 µmol/L | 0.67 µmol/L | – | – | – | IC50 (HCT-116 cells [2]; Homo sapiens, HCT-116, 96 h): 6400 nM
COc1ccc(C(=O)Nc2cn(Cc3cc(F)cc(Cl)c3)cn2)cc1OC [Example 159] | – | – | – | 0.06 µmol/L | 0.07 µmol/L | particularly potent inhibitory effect | IC50 (HCT-116 cells [2]): 610 nM
CC(=O)Nc1ccc(/C=C/C(=O)Nc2cn(Cc3cccc(Cl)c3)cn2)cc1 [Example 9, (2E)-3-[4-(acetylamino)phenyl]-N-[1-(3-chlorobenzyl)-1H-imidazol-4-yl]prop-2-enamide] | 0.22 µmol/L | 0.03 µmol/L | 0.03 µmol/L | – | – | particularly potent inhibitory effect | IC50 (HCT-116 cells [2]; Homo sapiens, HCT-116, 96 h): 910 nM
Cc1ccc(F)c(Cn2cnc(NC(=O)/C(F)=C/c3cccnc3)c2)c1F [Example 116] | > 10 µmol/L | 0.8 µmol/L | 0.93 µmol/L | – | – | – | –
Cc1cc(/C=C/C(=O)Nc2cn(Cc3cccc(Cl)c3)cn2)oc1C [Example 93] | – | – | – | 0.82 µmol/L | 0.09 µmol/L | particularly potent inhibitory effect | IC50 (HT-29 cells): 4.93 µmol/L
O=C(/C=C/c1c[nH]c2ccccc12)Nc1cn(Cc2cccc(Cl)c2)cn1 [Example 89] | – | – | – | 0.96 µmol/L | 0.04 µmol/L | – | IC50 (HT-29 cells): 0.61 µmol/L
Cn1cc(C(=O)Nc2cn(Cc3cccc(Cl)c3)cn2)ccc1=O [Example 243] | – | – | – | – | – | – | viability at 1 µM (HCT-116 cells [1]; Homo sapiens, read-out: (100%-inhibition rate of cell proliferation) at 1 μmol/L, HCT-116 cells, 1 μmol/L, value with %): 23.8%; viability at 1 µM (HT-29 cells; [3]): 19.5%; viability at 1 µM (FaDu cells; [3]): 29%
COc1ccc(C(=O)Nc2cn(Cc3cccc(OCc4ccccc4)c3)cn2)cc1OC [Example 169] | – | – | – | – | – | – | (100%-inhibition rate of cell proliferation) at 1 μmol/L, HCT-116 (HCT-116 cells [1]; HCT-116 cells, 1 μmol/L, value with %): 50.9%; (100%-inhibition rate of cell proliferation) at 1 μmol/L, HT-29 (HT-29 cells; 1 μmol/L, value with %): 35.4%; (100%-inhibition rate of cell proliferation) at 1 μmol/L, FaDu (FaDu cells; 1 μmol/L, value with %): 68.6%
O=C(/C=C/c1ccc(N2CCOCC2)cc1)Nc1cn(Cc2cccc(Cl)c2)cn1 [Example 96] | – | – | – | 0.83 µmol/L | 0.07 µmol/L | particularly potent inhibitory effect | IC50 (HT-29 cells): 0.09 µmol/L
Cc1ccc(F)c(Cn2cnc(NC(=O)c3ccc(OC(C)C)nc3)c2)c1F [Example 217] | – | – | – | 0.22 µmol/L | 0.75 µmol/L | – | IC50 (HT-29 cells): 0.48 µmol/L
O=C(/C=C/c1cncc(Br)c1)Nc1cn(Cc2cccc(Cl)c2)cn1 [Example 45] | 6.38 µmol/L | 0.88 µmol/L | 0.81 µmol/L | – | – | – | –

Now from value to compound, other results behind:

IC50 (HCT-116 cells [1]; Homo sapiens, HCT-116 cells) | IC50 (HT-29 cells; Homo sapiens) | IC50 (FaDu cells; Homo sapiens) | IC50 (HCT-116 cells [1]; HCT-116 cells) | IC50 (FaDu cells) | SMILES | inhibitory effect on the sphere-forming ability of cancer cells (HCT-116 cells [1]) | further results
– | – | – | 0.06 µmol/L | 0.06 µmol/L | COc1ccc(C(=O)Nc2cn(Cc3cc(F)cc(C(F)(F)F)c3)cn2)cc1OC [Example 162] | particularly potent inhibitory effect | IC50 (HCT-116 cells [2]): 510 nM
– | – | – | 0.57 µmol/L | 0.5 µmol/L | COc1ccc(C(=O)Nc2cn(Cc3ccc(Cl)cc3)cn2)cc1OC [Example 158] | – | IC50 (HCT-116 cells [2]): 4220 nM
– | – | – | 0.29 µmol/L | 0.22 µmol/L | O=C(Nc1cn(Cc2cc(F)c(F)c(F)c2)cn1)c1ccc(CO)cc1 [Example 175] | – | IC50 (HCT-116 cells [2]): 770 nM
0.38 µmol/L | 0.29 µmol/L | 0.11 µmol/L | – | – | Cn1cc(C(=O)Nc2cn(Cc3cccc(C(F)(F)F)c3)cn2)ccc1=O [Example 242, 1-Methyl-6-oxo-N-{1-[3-(trifluoromethyl)benzyl]-1H-imidazol-4-yl}-1,6-dihydropyridine-3-carboxamide] | particularly potent inhibitory effect | IC50 (HCT-116 cells [2]; Homo sapiens, HCT-116, 96 h): 2140 nM
0.84 µmol/L | 0.65 µmol/L | < 0.01 µmol/L | – | – | COc1ccc(/C=C/C(=O)Nc2cn(Cc3cccc(C(F)(F)F)c3)cn2)cc1O [Example 31, (E)-3-(3-Hydroxy-4-methoxyphenyl)-N-(1-(3-(trifluoromethyl)benzyl)-1H-imidazol-4-yl)acrylamide] | – | IC50 (HCT-116 cells [2]; Homo sapiens, HCT-116, 96 h): 90 nM; inhibitory effect on the sphere-forming ability of cancer cells (HCT-116 cells [2]): particularly potent inhibitory effect
– | – | – | 0.07 µmol/L | 0.07 µmol/L | COc1ccc(C(=O)Nc2cn(Cc3ccc(F)c(Cl)c3)cn2)cc1OC [Example 160] | particularly potent inhibitory effect | IC50 (HCT-116 cells [2]): 610 nM
– | – | – | 0.04 µmol/L | < 0.01 µmol/L | COc1ccc(C(=O)Nc2cn(Cc3ccc(F)c(C(F)(F)F)c3)cn2)cc1OC [Example 161] | particularly potent inhibitory effect | IC50 (HCT-116 cells [2]): 410 nM
9.31 µmol/L | 0.83 µmol/L | 0.99 µmol/L | – | – | O=C(Nc1cn(Cc2cccc(OC(F)(F)F)c2)cn1)/C(F)=C/c1cccnc1 [Example 111] | – | –
– | – | – | 4.42 µmol/L | 0.29 µmol/L | Cc1ccccc1/C=C/C(=O)Nc1cn(Cc2cccc(Cl)c2)cn1 [Example 72] | – | IC50 (HT-29 cells): 0.09 µmol/L
> 10 µmol/L | 5.83 µmol/L | 5.49 µmol/L | – | – | CCNC(=O)c1ccc(/C=C/C(=O)Nc2cn(Cc3cccc(Cl)c3)cn2)cn1 [Example 26, (E)-5-(3-((1-(3-Chlorobenzyl)-1H-imidazol-4-yl)amino)-3-oxoprop-1-en-1-yl)-N-ethylpicolinamide] | – | –
7.21 µmol/L | 5.67 µmol/L | 1.92 µmol/L | – | – | Cc1cccc(/C=C/C(=O)Nc2cn(Cc3cccc(OC(F)(F)F)c3)cn2)c1 [Example 110] | – | –
0.87 µmol/L | 0.6 µmol/L | 0.6 µmol/L | – | – | O=C(/C=C/c1cccnc1)Nc1cn(Cc2cccc(C(F)(F)F)c2)cn1 [Example 103] | – | –
0.89 µmol/L | 0.6 µmol/L | 0.66 µmol/L | – | – | Nc1ccc(/C=C/C(=O)Nc2cn(Cc3cccc(Cl)c3)cn2)cn1 [Example 19, (E)-3-(6-Aminopyridin-3-yl)-N-(1-(3-chlorobenzyl)-1H-imidazol-4-yl)acrylamide] | – | –
– | – | – | 0.08 µmol/L | 0.09 µmol/L | COc1ccc(C(=O)Nc2cn(Cc3c(F)ccc(C)c3F)cn2)cn1 [Example 216] | particularly potent inhibitory effect | IC50 (HT-29 cells): 0.07 µmol/L
– | – | – | 0.58 µmol/L | 0.08 µmol/L | COc1cc(C(=O)Nc2cn(Cc3cccc(Cl)c3)cn2)cnc1OC [Example 218] | particularly potent inhibitory effect | IC50 (HT-29 cells): 0.06 µmol/L
